Measurements as given in paper PMC6949113, “Preclinical evaluation of AT-527, a novel guanosine nucleotide prodrug with potent, pan-genotypic activity against hepatitis C virus” (PLoS ONE, 2020).

Assays:
[1] = Rat pharmacokinetic study, plasma; type: in vivo, Sprague-Dawley rat; conditions: both sexes, Sprague-Dawley, rat, in vivo, po, 500 mg/kg
[2] = Monkey PK study, plasma; type: in vivo, cynomolgus monkey; conditions: for plasma concentration, individual monkeys: AT-527 30 mg/kg oral, monkeys 1-3, BQL: <0.0017 AT-511, <0.0032 AT-273; for plasma concentration: male cynomolgus monkeys; for Cmax / MRT last / Tmax / AUC(0-t): male, cynomolgus, cynomolgus monkey; for AUC(0-t): read-out: AUC0-last
Text: Monkey PK study. Male non-naïve cynomolgus monkeys were obtained from Hainan Jingang Laboratory Animal Co., Ltd. (Hainan, China), group housed during the 5-day acclimation period or individually housed during the study in stainless steel mesh cages, provided ad libitum access to RO water, fed twice daily (~120 g Certified Monkey Diet daily; Beijing Vital Keao Feed Co., Ltd., Beijing, China) and given daily treats of fresh fruit. Additional environmental enrichment included classical music and cartoons. Three groups of 5 monkeys each were administered 30, 100 or 300 mg/kg AT-527 as a powder filled in empty porcine hard gelatin capsules (size 0). The monkeys were fasted overnight prior to dosing and fed 4 h after dosing. Three dosages were selected to provide assessments of dose proportionality, the top two representing potential doses for a repeated oral dose toxicity study in monkeys, and the lowest predicted to be more therapeutically relevant. A pill gun was used to place the capsule beyond the root of the animals’ tongues and their mouths were held loosely closed for approximately 30 sec to allow them to move the jaw and swallow the capsule. Immediately following capsule administration, 20 mL of water was given by mouth and then the mouth was opened to ensure the capsule was swallowed. Blood samples (~0.6 mL) were collected up to 72 h from three animals per dose group, and up to 4 h from the remaining two animals in each group, at the same time points described for rats. […] Blood samples were collected with a syringe from a peripheral blood vessel from restrained, non-sedated animals, immediately transferred to pre-chilled tubes containing ~1 mg K2EDTA•2H20 and 20 μL of 5 mM dichlorvos solution, mixed and placed on ice until plasma was prepared by centrifugation as described for rats. Immediately after centrifugation, plasma samples were extracted with 4 volumes ISS2, and the supernatants were clarified by centrifugation (12,000 rpm, 10 min, 4°C) and stored at ≤ -60°C until analyzed by LC-MS/MS as described below. After the 4-hr blood collection, two monkeys per dose group were anesthetized with intravenous injection of pentobarbital sodium (60 mg/kg) and then euthanized as described for rats. […] All analytes were quantitated by LC-MS/MS as described below.
LC-MS/MS analysis of rat and monkey plasma and tissue homogenate supernatants. For the analysis of AT-511 in rat plasma, aliquots were extracted with 10 volumes ISS2. The supernatants were clarified by centrifugation (4000 rpm for 10 min at 4°C) and 3 μL samples were injected onto an Acuity BEH C18 1.7 μm, 2.1 × 50 mm column and a Sciex API 4000 mass spectrometer (ESI positive ion, MRM mode). Mobile phases A (0.025% formic acid (FA) and 1 mM ammonium acetate (AA) in 5% ACN in water) and B (0.025% FA and 1 mM AA in 95% ACN in water) were used to elute samples (3 μL) at 0.6 mL/min with 10% B for 0.3 min followed by linear gradients to 60% B over 0.6 min and to 90% B over 0.2 min, and ending with 90% B for 0.4 min.
PK data analysis. […] The linear/log trapezoidal rule was applied in obtaining the PK parameters.

[3] = Intracellular metabolism in monkey hepatocytes; type: in vitro ADME, cynomolgus monkey
Protocol: Hepatocytes. […] Cryopreserved male mouse (CD1), and fresh male Beagle dog and male cynomolgus monkey hepatocytes were obtained from BioreclamationIVT (Baltimore, MD) and were similarly plated with Matrigel in 6- or 24-well plates and maintained overnight in InVitroGRO™HI medium with Torpedo™ antibiotic (BioreclamationIVT). The protocol described above for measuring AT-511 and its metabolites in Huh-7 cells was repeated with the five different hepatocytes. Untreated cells were collected at 24 h, and the protein content of the cell lysates were determined using a bicinchoninic acid protein assay kit to assess the number of cells in each incubation. Separately, plated human hepatocytes were incubated for 6 h with 100 μM AT-511, followed by washout periods of 0, 2, 6, 18 and 30 h.
S3 Protocol. LC-MS/MS analysis of AT-511 and metabolites in cultured cells. The supernatant extracts of each hepatocyte and Huh-7 cell incubation were separately analyzed by four different LC-MS/MS methods for quantitation of phosphoramidates, nucleosides, monophosphates, and triphosphates (methods 1, 2, 3 and 4, respectively), using synthetic reference standards of actually and potentially present compounds and using structurally related analogs as internal standards. […]

**Q.** Which results are given for `C[C@@]1(F)[C@H](O)[C@@H](CO)O[C@H]1n1cnc2c(=O)[nH]c(N)nc21` [AT-273]?
**A.** AUC(0-t) [1]: 40.3 ± 10.9 µM·h; Cmax [1]: 2500 ± 520 nM; MRT last [1]: 17.5 ± 2.1 h; Tmax [1]: 6.34 ± 0.58 h; plasma concentration, individual monkeys ([2]; 0.500 h): BQL; plasma concentration, individual monkeys ([2]; 1.00 h): BQL; plasma concentration ([2]; single oral AT-527 100 mg/kg, 0.500 h, monkey 1): BQL; plasma concentration ([2]; single oral AT-527 100 mg/kg, 0.500 h, monkey 2): BQL; plasma concentration ([2]; single oral AT-527 300 mg/kg, 0.500 h, monkey 1): BQL; plasma concentration ([2]; single oral AT-527 300 mg/kg, 0.500 h, monkey 2): BQL; plasma concentration ([2]; single oral AT-527 300 mg/kg, 0.500 h, monkey 3): BQL; plasma concentration ([2]; single oral AT-527 300 mg/kg, 1.00 h, monkey 1): BQL; plasma concentration ([2]; single oral AT-527 300 mg/kg, 1.00 h, monkey 2): BQL; plasma concentration ([2]; single oral AT-527 300 mg/kg, 1.00 h, monkey 3): BQL; plasma concentration ([2]; single oral AT-527 300 mg/kg, 72.0 h, monkey 3): BQL; Cmax ([2]; in vivo, po, 30 mg/kg): 140 ± 10 nM; MRT last ([2]; in vivo, po, 30 mg/kg): 26.9 ± 1.9 h; Tmax ([2]; in vivo, po, 30 mg/kg): 16 ± 6.9 h; MRT last ([2]; in vivo, po, 100 mg/kg): 23.7 ± 3.8 h; MRT last ([2]; in vivo, po, 300 mg/kg): 27.9 ± 8.1 h; Tmax ([2]; in vivo, po, 300 mg/kg): 17.3 ± 11.5 h; AUC(0-t) ([2]; monkey plasma, single oral AT-527 30 mg/kg): 5.42 ± 1.03 µM·h; AUC(0-t) ([2]; monkey plasma, single oral AT-527 100 mg/kg): 10.1 ± 2.6 µM·h; Cmax ([2]; monkey plasma, single oral AT-527 100 mg/kg, read-out: Cmax): 440 ± 170 nM; AUC(0-t) ([2]; monkey plasma, single oral AT-527 300 mg/kg): 12.2 ± 6.1 µM·h; Cmax ([2]; monkey plasma, single oral AT-527 300 mg/kg, read-out: Cmax): 310 ± 50 nM

**Q.** For `C[C@@]1(F)[C@H](O)[C@@H](COP(=O)(O)OP(=O)(O)OP(=O)(O)O)O[C@H]1n1cnc2c(=O)[nH]c(N)nc21` [AT-9010], which “AUC0-24, intracellular” value ([3]; 10 μM AT-511) is on record?
**A.** 195 pmol*h/10^6 cells

**Q.** What about the “Cmax, intracellular” value ([3]; 10 μM AT-511, 0-24 h) of the same compound?
**A.** 10.4 ± 0.2 pmol/10^6 cells
